The results in this text go back to patent publication US12336977B2, “Nitenin analogue compounds and their use in the treatment of chronic and acute pain” (SEA4US-BIOTECNOLOGIA E RECURSOS MARINHOS, LDA., priority 2019, dated 2025).

The test system of assay [1] is K+ currents of small diameter dorsal-root ganglion neuron. The experiment in a line: voltage dependence of steady state of inactivation of K+ currents in sdDRGn. The note with it: sdDRGn. It counts as cell-based, rat. The text has this:
One can observe a shift to hyperpolarized values during the nitenin treatment. The relationships were better fit with the sum of two Boltzmann functions, showing that in both conditions there are two components: one more hyperpolarized component (component 1) and one other more depolarized component (component 2).
One can observe a shift to hyperpolarized values during the treatment with the compound of formula VI. The relationships were better fit with the sum of two Boltzmann functions, showing that in both conditions there are two components: one more hyperpolarized component (component 1) and one other more depolarized component (component 2).
One can observe a shift to hyperpolarized values during the treatment with the compound of formula VII. The relationships were better fit with the sum of two Boltzmann functions, showing that in both conditions there are two components: one more hyperpolarized component (component 1) and one other more depolarized component (component 2).
One can observe a shift to hyperpolarized values during the treatment with the compound of formula VIII. The relationships were better fit with the sum of two Boltzmann functions, showing that in both conditions there are two components: one more hyperpolarized component (component 1) and one other more depolarized component (component 2).
For the electrophysiological recordings of the ex vivo material, voltage-clamp recordings were performed on neurons isolated from rat DRGs (and TGs). Recordings were performed from the soma that often contained the proximal fraction of axon, 1 hour after the end of the cell isolation process (includes enzymatic and mechanical treatment).

Assay [2] relates to voltage activated K+ currents (Islow, Ifast) of small diameter Dorsal Root Ganglia neurons (sdDRGns). The experiment in a line: whole-cell voltage-clamp of voltage activated K+ currents in sdDRGns. The format is cell-based, rat.

Consider `O=C1OC(CO)CC1=CCCc1ccoc1` (centres unmarked) [compound of formula VIII-A], for which the “Vh2 of steady state inactivation” value in assay [1] (6.5 μg/ml, 29.4 μM, control −18.1) is on record as −35.5 mV. In addition, in assay [1] (6.5 μg/ml, 29.4 μM, control −53.6), the “Vh1 of steady state inactivation” value is given as −88.9 mV. Further, in assay [2] (6.5 μg/ml, 29.4 μM), the “time constant τ of the sensitive current (current subtraction, single-exponential fit)” value is around 450 ms.
On to `C/C(=C\C1OC(=O)CC1O)CCCc1ccoc1` (centres unmarked) [compound of formula VII], for which, in assay [1] (0.1 μg/ml, 399 nM, control −13.7), the “Vh2 of steady state inactivation” value is given as −32.4 mV. Further, the “Vh1 of steady state inactivation” value in assay [1] (0.1 μg/ml, 399 nM, control −64.1) is −92.6 mV.
Take `C=CC1OC(=O)CC1O` (centres unmarked) [compound of formula VI]: in assay [1] (10 μg/ml, 77.9 μM, control −23.9), the “Vh2 of steady state inactivation” value is reported as −40.5 mV. Besides, the “Vh1 of steady state inactivation” value in assay [1] (10 μg/ml, 77.9 μM, control −91.0) is −102.9 mV. In assay [2] (10 μg/ml, 77.9 μM), the “time constant τ of the sensitive current (current subtraction, single-exponential fit)” value was around 795 ms.
